Reference: article PMC12678798, “Discovery of an allosteric binding site for anthraquinones at the human P2X4 receptor” (Nature Communications, 2025)
Like-named read-outs stand apart in the source and are kept apart here.

Tests used:
mouse P2X4 receptors = tested on: mouse P2X4 receptors; parameters: method as in not given; conditions: ref not given; cited from earlier work
human P2X4 receptor [1] = biological target: human P2X4 receptor; parameters: method as in ref 10.1016/j.heliyon.2023.e21265; conditions: SPR competition assay; ref 10.1016/j.heliyon.2023.e21265; read-out: Potency (IC50 value) at the human P2X4 receptor; cited from earlier work
human P2X4 receptor [2] = biological target: human P2X4 receptor; parameters: method as in https://doi.org/10.1124/mol.114.096222; conditions: patch clamp, HEK293; ref https://doi.org/10.1124/mol.114.096222; read-out: Potency (IC50 value) at the human P2X4 receptor; cited from earlier work
rat P2X4 receptors = tested on: rat P2X4 receptors; parameters: method as in not given; conditions: ref not given; cited from earlier work
[3] = parameters: method as in not given; conditions: rebuttal comparison table; ref not given; cited from earlier work
human wt P2X4 receptor = biological target: T1, human wt P2X4 receptor (Homo sapiens, UniProt Q99571); test: Homologous competition binding vs [35S]ATPγS, 1321N1 astrocytoma cell membranes; conditions: 0.2 nM [35S]ATPγS, 1321N1 membranes
T1 construct: expressed in transfected cells
T1 sequence (Q99571 1-388): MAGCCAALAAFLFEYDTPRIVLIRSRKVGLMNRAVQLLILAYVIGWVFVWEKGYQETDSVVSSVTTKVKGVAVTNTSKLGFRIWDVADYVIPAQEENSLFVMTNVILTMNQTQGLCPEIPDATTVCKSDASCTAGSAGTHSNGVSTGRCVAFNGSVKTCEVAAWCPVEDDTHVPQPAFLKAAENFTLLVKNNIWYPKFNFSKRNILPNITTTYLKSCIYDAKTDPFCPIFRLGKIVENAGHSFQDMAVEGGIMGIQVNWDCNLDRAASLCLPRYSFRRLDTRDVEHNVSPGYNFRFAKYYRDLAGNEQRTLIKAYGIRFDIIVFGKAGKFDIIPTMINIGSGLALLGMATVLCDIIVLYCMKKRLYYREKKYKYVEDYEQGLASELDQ
Procedure: (§1) Radioligand binding studies were performed according to a published procedure. […] After an incubation of 1 h at room temperature, the incubation was terminated by rapid vacuum filtration through GF/B glass fiber filters using a Brandel 48-well harvester (Brandel). The filters were rinsed three times with ice-cold Tris-HCl buffer (50 mM, pH 7.4, 3-4 mL each) to separate unbound from bound radioligand. After punching out the filters and transferring them into scintillation vials, scintillation cocktail (2.5 mL, Ultima Gold®) was added. The samples were measured after 6 h of preincubation using a liquid scintillation counter for 1 min each. All data from calcium influx assays and radioligand binding studies were analyzed using Microsoft Excel. […] KD and Bmax values from radioligand binding assays were calculated by using the “one site-homologous” equation, implemented in GraphPad Prism version 8.0. The level of significance was calculated by a one-way ANOVA with Dunnett's post hoc test, in case there was a control group, and multiple comparison was required. […] The significance levels were defined as follows: *P < 0.05, **P < 0.01, ***P < 0.001, ****P < 0.0001.

[4] = biological target: T2, human solubilized and purified P2X4-E307T receptor mutant reconstituted into nanodiscs (Homo sapiens, UniProt Q99571, E307T/N184R/N75R); test: Homologous competition binding vs [35S]ATPγS, purified P2X4-E307T receptor in nanodiscs; conditions: 0.2 nM [35S]ATPγS; P2X4-E307T construct in nanodiscs
T2 construct: The full-length human P2X4 receptor gene was subcloned into the pFastBac1 vector; Rho1D4 (fused by GSSG linker) (C); GSSG linker + human rhinovirus 3C protease site + 10x-His (C); made in house; host or cells: Sf9 insect cells (baculovirus)
Procedure: as §1

[5] = parameters: method as in not given; conditions: ref not given; cited from earlier work
human P2X4 receptor [6] = tested on: human P2X4 receptor; parameters: method as in not given; conditions: assay and ref not given; cited from earlier work

T2 sequence (Q99571 whole entry N75R/N184R/E307T, the tested form may be a part): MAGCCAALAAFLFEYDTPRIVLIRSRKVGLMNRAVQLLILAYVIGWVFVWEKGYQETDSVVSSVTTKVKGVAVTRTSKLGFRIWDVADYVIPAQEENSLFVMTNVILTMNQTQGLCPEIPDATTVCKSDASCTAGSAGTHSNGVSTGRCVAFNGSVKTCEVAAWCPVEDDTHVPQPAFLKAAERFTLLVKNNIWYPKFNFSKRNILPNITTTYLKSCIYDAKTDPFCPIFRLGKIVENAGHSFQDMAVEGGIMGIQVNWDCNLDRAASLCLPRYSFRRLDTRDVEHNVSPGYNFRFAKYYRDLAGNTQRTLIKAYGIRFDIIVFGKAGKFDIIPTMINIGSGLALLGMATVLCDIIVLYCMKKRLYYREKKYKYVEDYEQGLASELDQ

SMILES: CC(C)c1cc(Br)c(NC(=O)Nc2cccnc2)c(Br)c1 [BX430]
- Potency at mouse compared with human P2X4 receptors (mouse P2X4 receptors): significantly weaker
- IC50 (human P2X4 receptor [1]): 4.5 µM
- IC50 (human P2X4 receptor [2]): 0.54 µM
- Potency at rat compared with human P2X4 receptors (rat P2X4 receptors): significantly weaker
- Lipophilicity [3]: Lipophilic

SMILES: Nc1ncnc2c1ncn2[C@@H]1O[C@H](CO[P@](=O)(O)O[P@](=O)(O)O[P@@](=O)(O)S)[C@@H](O)[C@H]1O [ATPγS]
- Kd (human wt P2X4 receptor): 0.0141 ± 0.0027 µM
- Dissociation constant (KD value) [4]: 0.00601 ± 0.00081 µM

SMILES: NS(=O)(=O)c1cc(NC(=O)Cc2ccccc2)ccc1Oc1cccc(Cl)c1 [BAY-1797, N-4-(3-chlorophenoxy)-3-sulfamoylphenyl-2-phenylacetamide]
- Oral bioavailability [5]: orally bioavailable
- Extent of receptor inhibition (no complete inhibition) (human P2X4 receptor [6]): about 80%
